For assay [1], the target named is T1, Nociceptin receptor (Cavia porcellus, UniProt P47748). Kind of assay: Antagonist activity at NOP receptor in Albino guinea pig ileum assessed as effect on electrically stimulated contractions. The class given is functional, tissue-based. The note with it: read-out: pA2 (converted).
For assay [2], the target named is T2, Nociceptin receptor (Rattus norvegicus, UniProt P35370). The assay is described as follows: Antagonist activity at NOP receptor in Sprague-Dawley rat vas deferens assessed as effect on electrically stimulated contractions. The class given is functional, tissue-based. The note with it: read-out: pA2 (converted).
T2 sequence (P35370 whole entry): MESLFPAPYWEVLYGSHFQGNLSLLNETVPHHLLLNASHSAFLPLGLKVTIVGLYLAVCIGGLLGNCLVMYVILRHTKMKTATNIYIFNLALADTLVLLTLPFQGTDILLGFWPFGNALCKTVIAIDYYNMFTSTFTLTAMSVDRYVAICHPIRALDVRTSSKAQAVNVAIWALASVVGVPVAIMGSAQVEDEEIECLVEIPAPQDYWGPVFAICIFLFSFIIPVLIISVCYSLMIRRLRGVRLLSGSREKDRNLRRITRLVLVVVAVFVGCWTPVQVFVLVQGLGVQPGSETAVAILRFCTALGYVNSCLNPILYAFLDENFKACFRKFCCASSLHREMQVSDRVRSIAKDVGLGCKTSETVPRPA
The target of assay [3] is T3, Nociceptin receptor (Mus musculus, UniProt P35377). Kind of assay: Antagonist activity at NOP receptor in Swiss mouse vas deferens by [35S]GTP-gamma-S binding assay. Format: functional, tissue-based. As to conditions: read-out: pA2 (converted). For orientation: GTPγS resists hydrolysis and so accumulates on activated G proteins.
T3 sequence (P35377 whole entry): as the sequence (P35370 whole entry) above, with Y9F, S335A counted along it
Assay [4] addresses T3, Nociceptin receptor. The assay is described as follows: (§1) Agonist activity at NOP receptor in Swiss mouse vas deferens by [35S]GTP-gamma-S binding assay. Format: functional, tissue-based.
Assay [5] deals with T1, Nociceptin receptor. Kind of assay: (§2) Agonist activity at NOP receptor in Albino guinea pig ileum assessed as effect on electrically stimulated contractions. Format: functional, tissue-based.
The target of assay [6] is Nociceptin receptor (Mus musculus) (UniProt P35377). The assay is described as §1. The class given is functional, tissue-based.
Sequence of Nociceptin receptor (Mus musculus) (P35377 whole entry): as the sequence (P35370 whole entry) above, with Y9F, S335A counted along it
In assay [7] the target is Nociceptin receptor (Cavia porcellus) (UniProt P47748). The description is as §2. Format: functional, tissue-based.
Sequence of Nociceptin receptor (Cavia porcellus) (P47748 whole entry): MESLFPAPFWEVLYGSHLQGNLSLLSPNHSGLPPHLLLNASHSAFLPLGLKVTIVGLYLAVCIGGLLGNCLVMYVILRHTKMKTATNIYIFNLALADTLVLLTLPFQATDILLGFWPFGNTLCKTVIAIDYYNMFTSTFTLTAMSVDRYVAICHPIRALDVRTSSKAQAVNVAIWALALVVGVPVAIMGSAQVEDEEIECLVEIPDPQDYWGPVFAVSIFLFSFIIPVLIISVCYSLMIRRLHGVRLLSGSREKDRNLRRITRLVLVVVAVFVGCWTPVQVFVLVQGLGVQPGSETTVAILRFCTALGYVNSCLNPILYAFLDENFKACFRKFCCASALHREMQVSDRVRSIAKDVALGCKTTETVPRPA
Assay [8] deals with Delta-type opioid receptor (Homo sapiens, UniProt P41143). Kind of assay: Displacement of [3H]diprenorphine from human recombinant delta opioid receptor expressed in CHO cells. Format: cell-based. On the technique in general: Displacement assays read how much labelled ligand stays bound in the presence of the test substance.
Sequence of Delta-type opioid receptor (P41143 whole entry): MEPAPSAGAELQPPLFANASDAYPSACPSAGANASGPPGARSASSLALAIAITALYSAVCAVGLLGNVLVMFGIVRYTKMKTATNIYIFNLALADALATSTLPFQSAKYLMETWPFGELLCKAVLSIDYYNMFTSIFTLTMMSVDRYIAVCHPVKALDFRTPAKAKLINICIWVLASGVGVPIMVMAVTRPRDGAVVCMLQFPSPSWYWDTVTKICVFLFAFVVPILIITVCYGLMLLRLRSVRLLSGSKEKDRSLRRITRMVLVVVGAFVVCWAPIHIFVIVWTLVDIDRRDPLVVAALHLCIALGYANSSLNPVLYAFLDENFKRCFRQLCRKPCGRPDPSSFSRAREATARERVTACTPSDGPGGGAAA
The next assay concerns the target Mu-type opioid receptor (Homo sapiens, UniProt P35372). The assay is described as follows: Displacement of [3H]diprenorphine from human recombinant mu opioid receptor expressed in CHO cells. The class given is cell-based.
In assay [9] the target is T3, Nociceptin receptor. The assay is described as follows: (§3) Agonist activity at NOP receptor in Swiss mouse vas deferens assessed as effect on electrically stimulated contractions. The class given is functional, tissue-based.
For assay [10], the target named is Nociceptin receptor (Mus musculus) (UniProt P35377). The description is as §3. Format: functional, tissue-based.
Assay [11] concerns the target T2, Nociceptin receptor. The assay is described as follows: Agonist activity at NOP receptor in Sprague-Dawley rat vas deferens assessed as effect on electrically stimulated contractions. The class given is functional, tissue-based.

Calls of active or inactive are those of the source. No cut-off for these calls is given here. *1 amine or outer side, *2 acyl side, *3 side chain or, on linkers, in order; H or OH if unused. Where a SMILES comes first, the peptide text is derived from it. [ ]: non-standard residue; d: D form. X1 = N[C@@H](Cc1ccccc1)CN(CC(=O)[*:2])[*:1]; Phe(4-F) = N[C@@H](Cc1ccc(F)cc1)C(=O)O; Aib = CC(C)(N)C(=O)O

T1 sequence (P47748 whole entry): as the sequence (P47748 whole entry) above
Sequence of Mu-type opioid receptor (P35372 whole entry): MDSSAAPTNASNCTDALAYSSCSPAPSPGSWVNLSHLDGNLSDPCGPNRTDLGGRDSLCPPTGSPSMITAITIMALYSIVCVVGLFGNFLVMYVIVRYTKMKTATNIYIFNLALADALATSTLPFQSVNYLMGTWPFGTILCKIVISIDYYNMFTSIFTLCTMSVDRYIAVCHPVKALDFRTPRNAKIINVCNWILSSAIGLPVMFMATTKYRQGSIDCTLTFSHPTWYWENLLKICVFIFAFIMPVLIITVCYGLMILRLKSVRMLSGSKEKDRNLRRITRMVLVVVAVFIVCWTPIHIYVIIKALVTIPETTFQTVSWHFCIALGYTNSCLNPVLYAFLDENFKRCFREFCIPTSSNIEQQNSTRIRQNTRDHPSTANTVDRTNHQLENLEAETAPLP

On to `C[C@H](NC(=O)[C@H](CO)NC(=O)[C@H](CCCCN)NC(=O)[C@H](CCCNC(=N)N)NC(=O)C(C)(C)NC(=O)CNC(=O)[C@@H](NC(=O)[C@H](Cc1ccc(F)cc1)NC(=O)CNC(=O)CNC[C@@H](N)Cc1ccccc1)[C@@H](C)O)C(=O)N[C@@H](CCCNC(=N)N)C(=O)N[C@@H](CCCCN)C(=O)N[C@@H](CCCNC(=N)N)C(=O)N[C@@H](CCCCN)C(=O)N[C@@H](CC(N)=O)C(=O)N[C@@H](CCC(N)=O)C(N)=O` (H-[X1]G[Phe(4-F)]TG[Aib]RKSARKRKNQ-NH2), for which the Kb at Nociceptin receptor [1] was 0.000316 µM; on Nociceptin receptor [2], 0.000603 µM; on Nociceptin receptor [3], 0.000794 µM.
In the case of `CC(C)C[C@H](NC(=O)[C@H](CCCCN)NC(=O)[C@H](CCCN=C(N)N)NC(=O)[C@H](C)NC(=O)[C@H](CO)NC(=O)[C@H](CCCCN)NC(=O)[C@H](CCCN=C(N)N)NC(=O)[C@H](C)NC(=O)CNC(=O)[C@@H](NC(=O)[C@H](Cc1ccccc1)NC(=O)CNC(=O)CNC(=O)[C@@H](N)Cc1ccccc1)[C@@H](C)O)C(=O)N[C@@H](C)C(=O)N[C@@H](CC(N)=O)C(=O)N[C@@H](CCC(N)=O)C(=O)O` [NOCICEPTIN], the EC50 (in general, the concentration that produces a half-maximal response) on Nociceptin receptor [4] was 0.0355 µM; at Nociceptin receptor [5], 0.00891 µM.
As to `CC(C)C[C@H](NC(=O)[C@H](CCCCN)NC(=O)[C@H](CCCNC(=N)N)NC(=O)[C@H](C)NC(=O)[C@H](CO)NC(=O)[C@H](CCCCN)NC(=O)[C@H](CCCNC(=N)N)NC(=O)[C@H](C)NC(=O)CNC(=O)[C@@H](NC(=O)[C@H](Cc1ccccc1)NC(=O)CNC(=O)CNC(=O)[C@@H](N)Cc1ccccc1)[C@@H](C)O)C(=O)N[C@@H](C)C(=O)N[C@@H](CC(N)=O)C(=O)N[C@@H](CCC(N)=O)C(=O)O`, the results for the Emax in assay [6] and in assay [7] were 87% and 45%, respectively.
With `C[C@H](NC(=O)[C@H](CO)NC(=O)[C@H](CCCCN)NC(=O)[C@H](CCCNC(=N)N)NC(=O)C(C)(C)NC(=O)CNC(=O)[C@@H](NC(=O)[C@H](Cc1ccccc1)NC(=O)CNC(=O)CNC(=O)[C@@H](N)Cc1ccccc1)[C@@H](C)O)C(=O)N[C@@H](CCCNC(=N)N)C(=O)N[C@@H](CCCCN)C(=O)N[C@@H](CCCNC(=N)N)C(=O)N[C@@H](CCCCN)C(=O)N[C@@H](CC(N)=O)C(=O)N[C@@H](CCC(N)=O)C(N)=O`, the outcome in assay [6] and in assay [7] was inactive.
Take `C[C@H](NC(=O)[C@H](CO)NC(=O)[C@H](CCCCN)NC(=O)[C@H](CCCNC(=N)N)NC(=O)C(C)(C)NC(=O)CNC(=O)[C@@H](NC(=O)[C@H](Cc1ccccc1)NC(=O)CNC(=O)CNC(=O)CNCc1ccccc1)[C@@H](C)O)C(=O)N[C@@H](CCCNC(=N)N)C(=O)N[C@@H](CCCCN)C(=O)N[C@@H](CCCNC(=N)N)C(=O)N[C@@H](CCCCN)C(=O)N[C@@H](CC(N)=O)C(=O)N[C@@H](CCC(N)=O)C(N)=O`: the inhibitory constant (Ki) (in assay [8]; on Mu-type opioid receptor) was greater than 10 µM each time. Moreover, the Kb on Nociceptin receptor [1] is 0.0468 µM; on Nociceptin receptor [2], 0.0871 µM; on Nociceptin receptor [3], 0.0347 µM.
Consider `CC(C)C[C@H](NC(=O)[C@H](CCCCN)NC(=O)[C@H](CCCNC(=N)N)NC(=O)[C@H](C)NC(=O)[C@H](CO)NC(=O)[C@H](CCCCN)NC(=O)[C@H](CCCNC(=N)N)NC(=O)C1(NC(=O)CNC(=O)[C@@H](NC(=O)[C@H](Cc2ccccc2)NC(=O)CNC(=O)CNC(=O)[C@@H](N)Cc2ccccc2)[C@@H](C)O)CC1)C(=O)N[C@@H](C)C(=O)N[C@@H](CC(N)=O)C(=O)N[C@@H](CCC(N)=O)C(N)=O`, for which the concentration for a half-maximal effect (EC50) on Nociceptin receptor [9] is 0.0832 µM. Further, the Emax – broadly, the greatest response seen or fitted, relative to the assay's reference – in [10] was found to be 7.08%.
With `CC(C)C[C@H](NC(=O)[C@H](CCCCN)NC(=O)[C@H](CCCNC(=N)N)NC(=O)C1(NC(=O)[C@H](CO)NC(=O)[C@H](CCCCN)NC(=O)[C@H](CCCNC(=N)N)NC(=O)[C@H](C)NC(=O)CNC(=O)[C@@H](NC(=O)[C@H](Cc2ccccc2)NC(=O)CNC(=O)CNC(=O)[C@@H](N)Cc2ccccc2)[C@@H](C)O)CC1)C(=O)N[C@@H](C)C(=O)N[C@@H](CC(N)=O)C(=O)N[C@@H](CCC(N)=O)C(N)=O`, the EC50 on Nociceptin receptor [9] is 0.0166 µM. In addition, the maximal effect (Emax) in assay [10] was found to be 91%.
As for `CC(C)C[C@H](NC(=O)[C@H](CCCCN)NC(=O)[C@H](CCCNC(=N)N)NC(=O)C1(NC(=O)[C@H](CO)NC(=O)[C@H](CCCCN)NC(=O)[C@H](CCCNC(=N)N)NC(=O)[C@H](C)NC(=O)CNC(=O)[C@@H](NC(=O)[C@H](Cc2ccccc2)NC(=O)CNC(=O)CNC(=O)[C@@H](N)Cc2ccccc2)[C@@H](C)O)CCCC1)C(=O)N[C@@H](C)C(=O)N[C@@H](CC(N)=O)C(=O)N[C@@H](CCC(N)=O)C(N)=O`, the EC50 on Nociceptin receptor [9] was 0.00832 µM. For the same molecule, in assay [10], the maximal effect (Emax) worked out at 89%.
Take `CC(C)C[C@H](NC(=O)[C@H](CCCCN)NC(=O)[C@H](CCCNC(=N)N)NC(=O)[C@H](C)NC(=O)[C@H](CO)NC(=O)[C@H](CCCCN)NC(=O)[C@H](CCCNC(=N)N)NC(=O)C1(NC(=O)CNC(=O)[C@@H](NC(=O)[C@H](Cc2ccccc2)NC(=O)CNC(=O)CNC(=O)[C@@H](N)Cc2ccccc2)[C@@H](C)O)CCCC1)C(=O)N[C@@H](C)C(=O)N[C@@H](CC(N)=O)C(=O)N[C@@H](CCC(N)=O)C(N)=O`: on Nociceptin receptor [9], the EC50 is 0.0251 µM. In [10], the Emax was 98%.
For `C[C@H](NC(=O)[C@H](CO)NC(=O)[C@H](CCCCN)NC(=O)[C@H](CCCNC(=N)N)NC(=O)C(C)(C)NC(=O)CNC(=O)[C@@H](NC(=O)[C@H](Cc1ccc(F)cc1)NC(=O)CNC(=O)CNC(=O)[C@@H](N)Cc1ccccc1)[C@@H](C)O)C(=O)N[C@@H](CCCNC(=N)N)C(=O)N[C@@H](CCCCN)C(=O)N[C@@H](CCCNC(=N)N)C(=O)N[C@@H](CCCCN)C(=O)N[C@@H](CC(N)=O)C(=O)N[C@@H](CCC(N)=O)C(N)=O`, the EC50 is 0.000575 µM at Nociceptin receptor [4], 0.000676 µM at Nociceptin receptor [5] and 0.00457 µM on Nociceptin receptor [11]. For the same molecule, the Emax in [6] amounted to 84%; in [7] it was 32%.
For `CCCC(CCC)(NC(=O)[C@H](CO)NC(=O)[C@H](CCCCN)NC(=O)[C@H](CCCNC(=N)N)NC(=O)[C@H](C)NC(=O)CNC(=O)[C@@H](NC(=O)[C@H](Cc1ccccc1)NC(=O)CNC(=O)CNC(=O)[C@@H](N)Cc1ccccc1)[C@@H](C)O)C(=O)N[C@@H](CCCNC(=N)N)C(=O)N[C@@H](CCCCN)C(=O)N[C@@H](CC(C)C)C(=O)N[C@@H](C)C(=O)N[C@@H](CC(N)=O)C(=O)N[C@@H](CCC(N)=O)C(N)=O`, on Nociceptin receptor [9], the EC50 is 0.0295 µM. Also, the Emax in assay [10] was 86%.
As to `CC(C)C[C@H](NC(=O)[C@H](CCCCN)NC(=O)[C@H](CCCNC(=N)N)NC(=O)C(C)(C)NC(=O)[C@H](CO)NC(=O)[C@H](CCCCN)NC(=O)[C@H](CCCNC(=N)N)NC(=O)[C@H](C)NC(=O)CNC(=O)[C@@H](NC(=O)[C@H](Cc1ccccc1)NC(=O)CNC(=O)CNC(=O)[C@@H](N)Cc1ccccc1)[C@@H](C)O)C(=O)N[C@@H](C)C(=O)N[C@@H](CC(N)=O)C(=O)N[C@@H](CCC(N)=O)C(N)=O`, on Nociceptin receptor [9], the EC50 was 0.00891 µM. Besides, the Emax in [10] was 91%.
